This is an account of results in US9856279B2 (AGIOS PHARMACEUTICALS, INC, priority 2011, dated 2018).

For one test, the target named is IDH1 R132H (Homo sapiens, UniProt O75874, R132H). In words: Assay for IDH1 R132H inhibitors (NADPH/aKG, resazurin detection). The class given is biochemical. The settings on record: enzyme assay of Example 12; read-out: IDH1R132H IC50. The gist of the method: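 Compound added to substrate mix (8 uM NADPH, 2 mM aKG), then enzyme mix (0.2 μg/ml IDH1 R132H); 50 min RT in 20 mM Tris pH 7.5, 150 mM NaCl, 10 mM MgCl2, 0.03% BSA. Resazurin detection mix (30 μM) 5 min RT; resorufin fluorescence Ex544/Em590.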
In general terms: The colour change of resazurin is a common sign of viable cells or microbes.

The subject of another test is HT1080 cells. Description: Cellular assay for IDH1m inhibitors: inhibition of 2-HG production (LC-MS, 48 hours) in HT1080 cells. The class given is cell-based. Particulars: Homo sapiens, HT-1080; inhibition of 2-HG production, HT1080 cells; read-out: HT1080 IC50. The gist of the method:
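The read-out is 2-HG in culture medium, measured by LC-MS after 48 h of compound exposure (0.2% DMSO) in cells plated overnight at 5000 per well in DMEM/10% FBS. IC50 is 50% reduction relative to DMSO wells. Luminescent viability (Cell Titer Glo) followed at 72 h.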

A further test concerns U87MG cells. Description: Cellular assay for IDH1m inhibitors: inhibition of 2-HG production (LC-MS, 48 hours) in U87MG cells. The class given is cell-based. The settings on record: Homo sapiens, U-87 MG, inhibition of 2-HG production, U87R132H cells; read-out: U87R132H IC50. On the procedure: Cells (e.g., HT1080 or U87MG) and are grown in T125 flasks in DMEM containing 10% FBS, 1× penicillin/streptomycin and 500 ug/mL G418. They are harvested by trypsin and seeded into 96 well white bottom plates at a density of 5000 cell/well in 100 ul/well in DMEM with 10% FBS. No cells are plates in columns 1 and 12. Cells are incubated overnight at 37° C. in 5% CO2. The next day compounds are made up at 2× concentration and 100 ul are added to each cell well. The final concentration of DMSO is 0.2% and the DMSO control wells are plated in row G. The plates are then placed in the incubator for 48 hours. At 48 hours, 100 μl of media is removed from each well and analyzed by LC-MS for 2-HG concentrations. The cell plate is placed back in the incubator for another 24 hours. At 72 hours post compound addition, 10 mL/plate of Promega Cell Titer Glo reagent is thawed and mixed. The cell plate is removed from the incubator and allowed to equilibrate to room temperature. Then 100 ul of reagent is added to each well of media. The cell plate is then placed on an orbital shaker for 10 minutes and then allowed to sit at room temperature for 20 minutes. The plate is then read for luminescence with an integration time of 500 ms.
The IC50 for inhibition of 2-HG production (concentration of test compound to reduce 2HG production by 50% compared to control) in these two cell lines for various compounds of formula I is set forth in Table 4 above.

As usually defined, the IC50 is the point on the concentration scale where inhibition reaches its midpoint.

Chain of IDH1 R132H (O75874 whole entry R132H): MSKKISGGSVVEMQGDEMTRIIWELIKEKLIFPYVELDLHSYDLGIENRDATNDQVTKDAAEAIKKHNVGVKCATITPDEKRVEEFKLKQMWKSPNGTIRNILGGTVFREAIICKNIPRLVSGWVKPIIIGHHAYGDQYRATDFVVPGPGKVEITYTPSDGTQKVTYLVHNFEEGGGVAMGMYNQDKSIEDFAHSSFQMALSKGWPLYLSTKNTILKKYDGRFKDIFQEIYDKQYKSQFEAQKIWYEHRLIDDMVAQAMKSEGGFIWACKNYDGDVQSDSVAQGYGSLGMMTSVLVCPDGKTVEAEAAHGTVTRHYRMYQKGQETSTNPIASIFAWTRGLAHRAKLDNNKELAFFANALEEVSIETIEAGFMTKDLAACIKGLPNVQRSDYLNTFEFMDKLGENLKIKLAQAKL

Take `C=Cc1cc(-c2cc(C#N)c(N3CCN(C(=O)COC)[C@H](C4CC4)C3)nc2C2CC2)cnn1` [Compound 715, (R)-6-cyclopropyl-2-(3-cyclopropyl-4-(2-methoxyacetyl)piperazin-1-yl)-5-(6-vinylpyridazin-4-yl)nicotinonitrile]: the IC50 on IDH1 R132H, in the test with HT1080 cells and in the test with U87MG cells was below 500 nM throughout.
Regarding `C=Cc1cc(-c2cc(C#N)c(N3CCN(C(=O)C4CC4)[C@H](C4CC4)C3)nc2C2CC2)c2ccccc2n1` [Compound 542, (R)-2-(4-(cyclopropanecarbonyl)-3-cyclopropylpiperazin-1-yl)-6-cyclopropyl-5-(2-vinylquinolin-4-yl)nicotinonitrile], the IC50 on IDH1 R132H, in the test with HT1080 cells and in the test on U87MG cells was below 500 nM throughout.
As to `C=Cc1cc(Nc2cc(C#N)c(N3CCN(C(=O)CCOC)[C@H](C)C3)nc2C2CC2)c2cccnc2n1` [Compound 705, (R)-6-cyclopropyl-2-(4-(3-methoxypropanoyl)-3-methylpiperazin-1-yl)-5-(2-vinyl-1,8-naphthyridin-4-ylamino)nicotinonitrile], the IC50 at IDH1 R132H, in the test with HT1080 cells and with U87MG cells was below 500 nM each time.
Take `C=Cc1cnnc(-c2c(C3CC3)nc(N3CCN(C(=O)CCO)[C@H](C(C)C)C3)c(C#N)c2C)c1` [Compound 784, (R)-6-cyclopropyl-2-(4-(3-hydroxypropanoyl)-3-isopropylpiperazin-1-yl)-4-methyl-5-(5-vinylpyridazin-3-yl)nicotinonitrile]: the IC50 on IDH1 R132H, in the test on HT1080 cells and in the test on U87MG cells was below 500 nM in each case.
As for `C=Cc1ccnc(Nc2cc(C#N)c(N3CCN(C(=O)CCOC)[C@H](C)C3)nc2C2CC2)c1` [Compound 647, (R)-6-cyclopropyl-2-(4-(3-methoxypropanoyl)-3-methylpiperazin-1-yl)-5-((4-vinylpyridin-2-yl)amino)nicotinonitrile], the IC50 at IDH1 R132H, in the test with HT1080 cells and with U87MG cells was below 500 nM throughout.
As for `C=Cc1cc(Nc2cc(C#N)c(N3CCN(C(=O)CCO)[C@H](C)C3)nc2C2CC2)ncn1` [Compound 617, (R)-6-cyclopropyl-2-(4-(3-hydroxypropanoyl)-3-methylpiperazin-1-yl)-5-(6-vinylpyrimidin-4-ylamino)nicotinonitrile], the IC50 at IDH1 R132H, in the test on HT1080 cells and in the test on U87MG cells was below 500 nM throughout.
For `C=C(F)C(=O)N(C)c1cccc(-c2cc(C#N)c(N3CCN(C(=O)CCOC)[C@H](C)C3)nc2C2CC2)c1` [Compound 453, (R)—N-(3-(5-cyano-2-cyclopropyl-6-(4-(3-methoxypropanoyl)-3-methylpiperazin-1-yl)pyridin-3-yl)phenyl)-2-fluoro-N-methylacrylamide], the 50% inhibitory concentration (IC50) on IDH1 R132H is below 500 nM; with HT1080 cells, 500 to 1000 nM; with U87MG cells it was below 500 nM.
Regarding `COCCC(=O)N1CCN(c2nc(C3CC3)c(-c3cccc4cnccc34)cc2C#N)C[C@H]1C1CC1` [Compound 409, (R)-6-cyclopropyl-2-(3-cyclopropyl-4-(3-methoxypropanoyl)piperazin-1-yl)-5-(isoquinolin-5-yl)nicotinonitrile], the IC50 at IDH1 R132H, in the test with HT1080 cells and in the test with U87MG cells was below 500 nM each time.
On to `COCCC(=O)N1CCN(c2nc(C3CC3)c(-c3cccc4cc[nH]c34)cc2C#N)C[C@H]1C` [Compound 373, (R)-6-cyclopropyl-5-(1H-indol-7-yl)-2-[4-(3-methoxy-propionyl)-3-methyl-piperazin-1-yl]-nicotinonitrile], for which the values for the IC50 on IDH1 R132H, in the test on HT1080 cells and with U87MG cells were below 500 nM, 1000 to 10000 nM and 500 to 1000 nM, respectively.
For `N#Cc1cc(-c2cccc3nc(O)ccc23)c(C2CC2)nc1N1CCN(C(=O)C2CC2)[C@H](C2CC2)C1` [Compound 476, (R)-2-(4-(cyclopropanecarbonyl)-3-cyclopropylpiperazin-1-yl)-6-cyclopropyl-5-(2-hydroxyquinolin-5-yl)nicotinonitrile], the IC50 at IDH1 R132H was below 500 nM; in the test with HT1080 cells it was 500 to 1000 nM; with U87MG cells, below 500 nM.
Turning to `COCCC(=O)N1CCN(c2nc(C3CC3)c(-c3cccc(N4CC=CC4=O)c3)cc2C#N)C[C@H]1C` [Compound 459, (R)-6-cyclopropyl-2-(4-(3-methoxypropanoyl)-3-methylpiperazin-1-yl)-5-(3-(2-oxo-2,5-dihydro-1H-pyrrol-1-yl)phenyl)nicotinonitrile], the half-inhibitory concentration (IC50) at IDH1 R132H, in the test on HT1080 cells and in the test with U87MG cells was below 500 nM in each case.
With `C=Cc1cc(Oc2cc(C#N)c(N3CCN(C(=O)CCOC)[C@H](C)C3)nc2C2CC2)ccn1` [Compound 667], the IC50 at IDH1 R132H, in the test with HT1080 cells and in the test on U87MG cells was below 500 nM each time.
Regarding `COCCC(=O)N1CCN(c2nc(C3CC3)c(-c3ccc4ncsc4c3)cc2C#N)C[C@H]1C` [Compound 364, (R)-5-benzothiazol-6-yl-6-cyclopropyl-2-[4-(3-methoxy-propionyl)-3-methyl-piperazin-1-yl]-nicotinonitrile], the IC50 at IDH1 R132H was below 500 nM; in the test on HT1080 cells, 500 to 1000 nM; in the test with U87MG cells, below 500 nM.
Turning to `N#Cc1cc(-c2cccc3cnccc23)c(C2CC2)nc1N1CCN(C(=O)C2CC2)[C@H](C2CC2)C1` [Compound 391, (R)-2-(4-(cyclopropanecarbonyl)-3-cyclopropylpiperazin-1-yl)-6-cyclopropyl-5-(isoquinolin-5-yl)nicotinonitrile], the IC50 at IDH1 R132H is below 500 nM; in the test on HT1080 cells, 500 to 1000 nM; in the test with U87MG cells, 500 to 1000 nM.
Take `C=Cc1cc(Cc2cc(C#N)c(N3CCN(C(=O)CCO)[C@H](C4CC4)C3)nc2C2CC2)ccn1` [Compound 697, (R)-6-cyclopropyl-2-(3-cyclopropyl-4-(3-hydroxypropanoyl)piperazin-1-yl)-5-((2-vinylpyridin-4-yl)methyl)nicotinonitrile]: the IC50 on IDH1 R132H, in the test on HT1080 cells and in the test on U87MG cells was below 500 nM each time.
With `C=Cc1cnnc(-c2cc(C#N)c(N3CCN(C(=O)C[C@H]4CCO4)[C@H](C4CC4)C3)nc2C2CC2)c1` [Compound 766, 6-cyclopropyl-2-((R)-3-cyclopropyl-4-(2-((R)-oxetan-2-yl)acetyl)piperazin-1-yl)-5-(5-vinylpyridazin-3-yl)nicotinonitrile], the IC50 on IDH1 R132H, with HT1080 cells and in the test with U87MG cells was below 500 nM throughout.
`C=Cc1cc(-c2cc(C#N)c(N3CCN(C(=O)C[C@H](C)O)[C@H](C4CC4)C3)nc2C2CC2)ccn1` [Compound 595, 2-cyclopropyl-6-((R)-3-cyclopropyl-4-((S)-3-hydroxybutanoyl)piperazin-1-yl)-2′-vinyl-3,4′-bipyridine-5-carbonitrile]: the IC50 at IDH1 R132H, in the test on HT1080 cells and in the test with U87MG cells was below 500 nM throughout.
With `COCCC(=O)N1CCN(c2nc(C3CC3)c(-c3ccccc3C#N)cc2C#N)C[C@H]1C(C)C` [Compound 274, (R)-5-(2-cyanophenyl)-6-cyclopropyl-2-(3-isopropyl-4-(3-methoxypropanoyl)piperazin-1-yl)nicotinonitrile], the values for the concentration for half-maximal inhibition (IC50) on IDH1 R132H, in the test with HT1080 cells and in the test with U87MG cells were 500 to 1000 nM, 1000 to 10000 nM and 1000 to 10000 nM, respectively.
